Test results taken from patent US10023593B2, “ALK kinase inhibitor, and preparation method and uses thereof” (BEIJING PEARL BIOTECHNOLOGY LIMITED LIABILITY COMPANY, priority 2014, dated 2018).

What was measured:
L1196M mutant ALK kinase = target: T1, L1196M mutant ALK kinase (Homo sapiens, UniProt Q9UM73, L1196M); experiment: HTRF KinEASE-TK assay, inhibitory activity on L1196M mutant ALK kinase; format: biochemical; conditions: L1196M mutant ALK 1 ng/μl, substrate 1 μM, ATP 5 μM, 30° C. 35 minutes, read-out: Inhibition on ALK kinases (L1196M mutant), IC50
T1 construct: purchased Sino-US Crown Bioscience, Inc. batch number ALKm_20110923
T1 sequence (Q9UM73 19-1620 L1196M): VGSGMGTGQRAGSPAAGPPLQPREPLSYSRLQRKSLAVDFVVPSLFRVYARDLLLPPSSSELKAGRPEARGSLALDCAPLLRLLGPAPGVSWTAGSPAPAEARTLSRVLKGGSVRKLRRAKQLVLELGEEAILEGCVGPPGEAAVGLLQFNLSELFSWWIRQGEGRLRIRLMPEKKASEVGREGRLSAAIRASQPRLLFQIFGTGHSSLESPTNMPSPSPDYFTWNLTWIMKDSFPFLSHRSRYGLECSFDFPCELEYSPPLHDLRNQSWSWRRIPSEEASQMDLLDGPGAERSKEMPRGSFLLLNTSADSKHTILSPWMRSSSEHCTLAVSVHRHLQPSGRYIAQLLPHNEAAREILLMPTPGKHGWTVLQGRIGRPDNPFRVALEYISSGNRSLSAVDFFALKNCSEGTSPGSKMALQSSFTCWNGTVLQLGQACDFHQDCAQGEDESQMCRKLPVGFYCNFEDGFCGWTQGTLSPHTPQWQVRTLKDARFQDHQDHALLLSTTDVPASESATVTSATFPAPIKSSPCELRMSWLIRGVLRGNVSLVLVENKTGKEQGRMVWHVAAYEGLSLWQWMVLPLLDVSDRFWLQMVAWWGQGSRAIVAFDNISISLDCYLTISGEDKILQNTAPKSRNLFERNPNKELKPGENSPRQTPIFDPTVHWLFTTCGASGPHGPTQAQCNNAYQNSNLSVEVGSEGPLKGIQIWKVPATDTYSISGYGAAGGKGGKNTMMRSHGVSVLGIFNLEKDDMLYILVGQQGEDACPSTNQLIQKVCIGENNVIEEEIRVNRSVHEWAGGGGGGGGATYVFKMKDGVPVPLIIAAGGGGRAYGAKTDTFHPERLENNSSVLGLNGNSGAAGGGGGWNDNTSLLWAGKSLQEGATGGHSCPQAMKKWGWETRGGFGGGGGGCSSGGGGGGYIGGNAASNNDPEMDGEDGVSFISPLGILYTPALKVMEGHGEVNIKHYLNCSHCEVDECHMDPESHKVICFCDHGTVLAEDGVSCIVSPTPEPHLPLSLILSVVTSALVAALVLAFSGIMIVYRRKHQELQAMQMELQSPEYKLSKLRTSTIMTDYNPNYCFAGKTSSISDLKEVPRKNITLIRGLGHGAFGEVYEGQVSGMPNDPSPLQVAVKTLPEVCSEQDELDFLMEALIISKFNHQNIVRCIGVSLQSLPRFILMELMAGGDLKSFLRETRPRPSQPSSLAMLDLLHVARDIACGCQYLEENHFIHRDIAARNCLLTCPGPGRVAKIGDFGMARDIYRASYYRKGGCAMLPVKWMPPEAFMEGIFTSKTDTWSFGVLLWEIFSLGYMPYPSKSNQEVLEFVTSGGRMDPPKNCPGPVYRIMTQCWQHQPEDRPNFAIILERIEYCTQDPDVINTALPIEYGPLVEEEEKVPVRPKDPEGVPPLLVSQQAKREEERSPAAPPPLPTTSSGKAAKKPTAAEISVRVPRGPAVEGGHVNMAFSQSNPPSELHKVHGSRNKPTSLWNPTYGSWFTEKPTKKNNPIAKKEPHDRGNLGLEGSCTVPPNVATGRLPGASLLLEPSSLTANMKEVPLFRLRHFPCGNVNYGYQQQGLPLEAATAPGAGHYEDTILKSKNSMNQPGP
Method in brief: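 HTRF TK assay: mutant kinase 1 ng/μl, substrate 1 μM, ATP 5 μM, 5 mM MgCl2, 1 mM DTT, 1% DMSO, 35 min at 30 °C. 665/615 ratio read; inhibition normalised to no-compound and 10.4 μM LDK-378 controls; IC50 from curve fit.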

NCI-H2228 cell line = experiment: CellTiter-Glo cell proliferation inhibition on NCI-H2228 cell line; format: cell-based; conditions: Homo sapiens, NCI-H2228, 96 h, NCI-H2228 cells, 5000 cells/well, 4 days drug treatment
Method in brief: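 NCI-H2228 cells, 5000/well in RPMI-1640 + 10% FBS, treated with compounds 2 h after seeding (0.5% DMSO final) for 4 days at 37° C. Viability by CellTiter-Glo luminescence; inhibition relative to DMSO control, IC50 from curve fit.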

SMILES: CC(C)Oc1cc(C2CCNCC2)ccc1Nc1ncc(Cl)c(Nc2cn(C)nc2S(=O)(=O)C(C)C)n1 [Final product 1, 5-chloro-N^2-[2-isopropoxy-4-(piperidin-4-yl)phenyl]-N^4-(3-isopropylsulfonyl-1-methyl-1H-pyrazol-4-yl)pyrimidin-2,4-diamine]
- IC50 (L1196M mutant ALK kinase): 8 nM
- IC50 (NCI-H2228 cell line): 184 nM

SMILES: Cc1cc(Nc2ncc(Cl)c(Nc3cn(C)nc3S(=O)(=O)C(C)C)n2)c(OC(C)C)cc1C1CCNCC1 [Final product 2]
- IC50 (L1196M mutant ALK kinase): 16 nM
- IC50 (NCI-H2228 cell line): 198 nM

SMILES: Cc1cc(Nc2ncc(Cl)c(Nc3cn(C)nc3S(=O)(=O)C(C)C)n2)c(OC(C)C)cc1C1CCNC1 (stereo not shown) [Final product 3]
- IC50 (L1196M mutant ALK kinase): 5 nM
- IC50 (NCI-H2228 cell line): 364 nM

SMILES: Cc1cc(Nc2ncc(Cl)c(Nc3cn(C)nc3S(=O)(=O)C(C)C)n2)c(OC2CC2)cc1C1CCN(C)C1 (stereo not shown) [Final product 53]
- IC50 (L1196M mutant ALK kinase): 4 nM
- IC50 (NCI-H2228 cell line): 133 nM

SMILES: Cc1cc(Nc2ncc(Cl)c(Nc3cn(C)nc3S(=O)(=O)C(C)C)n2)c(OC2CC2)cc1C1CN(C)C1 [Final product 54]
- IC50 (L1196M mutant ALK kinase): 5 nM
- IC50 (NCI-H2228 cell line): 18 nM

SMILES: Cc1cc(Nc2ncc(Cl)c(Nc3cn(C)nc3S(=O)(=O)CC(C)C)n2)c(OC2CC2)cc1C1CN(C)C1 [Final product 55]
- IC50 (L1196M mutant ALK kinase): 8 nM
- IC50 (NCI-H2228 cell line): 181 nM

SMILES: Cc1cc(Nc2ncc(Cl)c(Nc3cn(C4CC4)nc3S(=O)(=O)C(C)C)n2)c(OC2CC2)cc1C1CCN(C)CC1 [Final product 56]
- IC50 (L1196M mutant ALK kinase): 11 nM
- IC50 (NCI-H2228 cell line): 142 nM

SMILES: Cc1cc(Nc2ncc(Cl)c(Nc3cn(C)nc3S(=O)(=O)CC(C)C)n2)c(OC2CC2)cc1C1CCN(C)CC1 [Final product 57]
- IC50 (L1196M mutant ALK kinase): 11 nM
- IC50 (NCI-H2228 cell line): 108 nM

SMILES: COC1CN(C)CCC1c1cc(OC2CC2)c(Nc2ncc(Cl)c(Nc3cn(C)nc3S(=O)(=O)C(C)C)n2)cc1C (stereo not shown) [Final product 58]
- IC50 (L1196M mutant ALK kinase): 6 nM
- IC50 (NCI-H2228 cell line): 55 nM

SMILES: COCC1CC(c2cc(OC3CC3)c(Nc3ncc(Cl)c(Nc4cn(C)nc4S(=O)(=O)C(C)C)n3)cc2C)CCN1C (stereo not shown) [Final product 77]
- IC50 (L1196M mutant ALK kinase): 4 nM
- IC50 (NCI-H2228 cell line): 25 nM

SMILES: COCC1CC(c2cc(OC3CC3)c(Nc3ncc(Cl)c(Nc4cn(C)nc4S(=O)(=O)CC(C)C)n3)cc2C)CCN1C (stereo not shown) [Final product 79]
- IC50 (L1196M mutant ALK kinase): 8 nM
- IC50 (NCI-H2228 cell line): 62 nM

SMILES: Cc1cc(Nc2ncc(Cl)c(Nc3cn(C4CC4)nc3S(=O)(=O)C(C)C)n2)c(OC(C)C)cc1C1CCN(C)CC1 [Final product 81]
- IC50 (L1196M mutant ALK kinase): 25 nM
- IC50 (NCI-H2228 cell line): 190 nM

SMILES: COCCN1CCC(c2cc(OC3CC3)c(Nc3ncc(Cl)c(Nc4cn(C)nc4S(=O)(=O)C(C)C)n3)cc2C)CC1 [Final product 82]
- IC50 (L1196M mutant ALK kinase): 7 nM
- IC50 (NCI-H2228 cell line): 43 nM

SMILES: Cc1cc(Nc2ncc(Cl)c(Nc3cn(C)nc3S(=O)(=O)C(C)C)n2)c(OC2CC2)cc1C1CCN(C)CC1F (stereo not shown) [Final product 87]
- IC50 (L1196M mutant ALK kinase): 10 nM
- IC50 (NCI-H2228 cell line): 113 nM

SMILES: Cc1cc(Nc2ncc(Cl)c(Nc3cn(C)nc3S(=O)(=O)C(C)C)n2)c(OC2CC2)cc1C1CCN(C)CC1(F)F (stereo not shown) [Final product 88]
- IC50 (L1196M mutant ALK kinase): 15 nM
- IC50 (NCI-H2228 cell line): 72 nM

SMILES: Cc1cc(Nc2ncc(Cl)c(Nc3cn(C)nc3S(=O)(=O)C(C)C)n2)c(OC2CC2)cc1C1CCN(C)CC1C (stereo not shown) [Final product 90]
- IC50 (L1196M mutant ALK kinase): 4 nM
- IC50 (NCI-H2228 cell line): 45 nM

SMILES: Cc1cc(Nc2ncc(Cl)c(Nc3cn(C)nc3S(=O)(=O)C(C)C)n2)c(OC2CC2)cc1C1CCC(NS(C)(=O)=O)CC1 (stereo not shown) [Final product 205, N-(4-(4-(5-chloro-4-(3-(isopropylsulfonyl)-1-methyl-1H-pyrazol-4-amine)pyrimidin-2-amine)-5-cyclopropoxy-2-methylphenyl)cyclohexyl)methanesulfonamide]
- IC50 (L1196M mutant ALK kinase): 20 nM
- IC50 (NCI-H2228 cell line): 151 nM
